Experimental data taken from EP0252028A1 (priority 1986, dated 1988).

Tests used:
Candida parapsilosis = assay: agar diffusion test, growth inhibition zones; assay type: cell-based
Candida albicans 1 = assay: agar diffusion test, growth inhibition zones; assay type: cell-based
Cryptococcus albidus = assay: agar diffusion test, growth inhibition zones; assay type: cell-based
Candida albicans PCA6 = assay: agar diffusion test, growth inhibition zones; assay type: cell-based
Candida albicans 2 = assay: agar diffusion test, growth inhibition zones; assay type: cell-based
[1] = test system: Salmonella tiphymurium ATCC 13311; assay: agar diffusion test, growth inhibition zones; assay type: cell-based
Aspergillus fumigatus = assay: agar diffusion test, growth inhibition zones; assay type: cell-based
[2] = test system: Escherichia coli ATCC 10538; assay: agar diffusion test, growth inhibition zones; assay type: cell-based
Sarcina lutea ATCC 9341 = assay: agar diffusion test, growth inhibition zones; assay type: cell-based
[3] = test system: Staphylococcus epidermis ATCC 14990; assay: agar diffusion test, growth inhibition zones; assay type: cell-based
[4] = test system: Bacillus subtilis ATCC 6051; assay: agar diffusion test, growth inhibition zones; assay type: cell-based
[5] = test system: Enterobacter aerogenes ATCC 13047; assay: agar diffusion test, growth inhibition zones; assay type: cell-based
[6] = test system: Staphylococcus aureus ATCC 9144; assay: agar diffusion test, growth inhibition zones; assay type: cell-based
[7] = test system: Streptococcus faecalis ATCC 8043; assay: agar diffusion test, growth inhibition zones; assay type: cell-based
[8] = test system: Mycobacterium aurum NCTC 10437; assay: agar diffusion test, growth inhibition zones
Protocol: The antitubercular activity was evaluated in in vitro tests against Mycobacterium aurum.

Candida tropicalis = assay: agar diffusion test, growth inhibition zones; assay type: cell-based
Aspergillus Flavus = assay: agar diffusion test, growth inhibition zones; assay type: cell-based
[9] = acute toxicity (LD50) in mice; settings: mouse, in vivo, iv; CD1 mice
From the text: The nitrofurylbenzimidazoles (I) prepared via the process of the present invention are suitable for being compounded into topically administrable ointments and creams. […] Examples of typical formulations (suited for both topical application and systemic administration) are illustrated in the above-mentioned UK patents 1,072;735 and 1,094,903.

Aspergillus Niger = assay: agar diffusion test, growth inhibition zones; assay type: cell-based
Torulopsis Candida = assay: agar diffusion test, growth inhibition zones; assay type: cell-based
Cryptococcus neoformans = assay: agar diffusion test, growth inhibition zones; assay type: cell-based
Rodutorula rubra = assay: agar diffusion test, growth inhibition zones; assay type: cell-based

| SMILES | Growth inhibition zones (Candida parapsilosis) | Growth inhibition zones (Candida albicans 1) | Growth inhibition zones (Cryptococcus albidus) | Growth inhibition zones (Candida albicans PCA6) | Growth inhibition zones (Candida albicans 2) | Growth inhibition zones [1] | Growth inhibition zones (Aspergillus fumigatus) | Growth inhibition zones [2] | Growth inhibition zones (Sarcina lutea ATCC 9341) | Growth inhibition zones [3] | Growth inhibition zones [4] | Growth inhibition zones [5] | Growth inhibition zones [6] | Growth inhibition zones [7] | Growth inhibition zones [8] | also measured |
| --- | --- | --- | --- | --- | --- | --- | --- | --- | --- | --- | --- | --- | --- | --- | --- | --- |
| Cc1ccc2[nH]c(-c3ccc([N+](=O)[O-])o3)nc2c1 [Es. 2, 5-methyl-2-(5'-nitro-2'-furyl)-benzimidazole] | 29 mm | 18 mm | 25 mm | 32 mm | 33 mm | 12 mm | 13 mm | 13 mm | 12 mm | 32 mm | 30 mm | 16 mm | 30 mm | 23 mm | 13 mm |  |
| O=[N+]([O-])c1ccc(-c2nc3ccccc3[nH]2)o1 [Es. 1, 2-(5'-nitro-2'-furyl)-benzimidazole] | 37 mm | 25 mm | 33 mm | 40 mm | 42 mm | 20 mm | 22 mm | 22 mm | 15 mm | 35 mm | 36 mm | 18 mm | 35 mm | 24 mm | 24 mm |  |
| O=[N+]([O-])c1ccc(-c2nc3cc(Cl)ccc3[nH]2)o1 [Es. 6, 5-chloro-2-(5'-nitro-2'-furyl)-benzimidazole] | 21 mm | 15 mm |  | 22 mm | 22 mm | 14 mm |  | 15 mm |  | 30 mm | 23 mm | 12 mm | 28 mm | 22 mm | 13 mm |  |
| O=[N+]([O-])c1ccc(-c2nc3cc(F)ccc3[nH]2)o1 [Es. 3, 5-fluoro-2-(5'-nitro-2'-furyl)-benzimidazole] | 34 mm | 34 mm | 35 mm | 34 mm | 34 mm | 23 mm | 30 mm | 21 mm | 27 mm | 29 mm | 27 mm |  | 28 mm | 33 mm | 35 mm | Growth inhibition zones (Candida tropicalis): 25 mm; Growth inhibition zones (Aspergillus Flavus): 30 mm; LD50 [9]: 240 mg/kg; Growth inhibition zones (Aspergillus Niger): 38 mm; Growth inhibition zones (Torulopsis Candida): 42 mm; Growth inhibition zones (Cryptococcus neoformans): 45 mm; Growth inhibition zones (Rodutorula rubra): 35 mm |
| O=[N+]([O-])c1ccc(-c2nc3cc(C(F)(F)F)ccc3[nH]2)o1 [Es. 5, 5-trifluoromethyl-2-(5'-nitro-2'-furyl)-benzimidazole] | 20 mm |  |  | 23 mm | 22 mm | 13 mm |  | 11 mm | 14 mm | 30 mm | 26 mm |  | 30 mm | 21 mm | 22 mm |  |
| O=[N+]([O-])c1ccc2[nH]c(-c3ccc([N+](=O)[O-])o3)nc2c1 [Es. 4, 5-nitro-2-(5'-nitro-2'-furyl)-benzimidazole] |  |  |  |  |  | 15 mm |  | 15 mm | 12 mm | 32 mm | 30 mm | 14 mm | 30 mm | 20 mm | 15 mm |  |
